Test results: US20260041744A1, “Methods for Treating Pompe Disease” (Amicus Therapeutics, Inc., priority 2022, published 2026)
One block for each compound: values may come before it.

What was measured:
rats = test: Sperm characteristics and fertility in rats; type: in vivo, rat
[1] = Miglustat plasma pharmacokinetics in patients, incl. renal impairment; type: in vivo, human
Method: At the recommended 260 mg dose, the mean Cmax was approximately 3 mcg/mL and the mean AUC was approximately 25 mcg*hr/mL. The mean time to reach the maximum concentration ranged from 2 hours to 3 hours.
Plasma concentrations of miglustat increased in patients with renal impairment. Accordingly, the apparent clearance of miglustat decreased with decreasing renal function. […] In some embodiments, the dosage of miglustat in patients with moderate or severe renal impairment is reduced as compared to patients with normal renal function.

ATB200 = ATB200 (Homo sapiens, UniProt P10253); test: Thermostability assay using SYPRO Orange; settings: pH 7.4
healthy adult men = test: Sperm parameters in healthy adult men; type: in vivo, human; settings: 100 mg orally twice daily for 6 weeks
CIMPR = CIMPR (Homo sapiens, UniProt P11717); test: CIMPR affinity chromatography of rhGAA (bound vs flow-through by GAA activity); type: binding; settings: CIMPR affinity column
Excerpt: Multiple batches of the rhGAA according to the disclosure were produced in shake flasks and in perfusion bioreactors using CHO cell line GA-ATB200, the product of which is referred to as “ATB200.” Weak anion exchange (“WAX”) liquid chromatography was used to fractionate ATB200 rhGAA according to terminal phosphate and sialic acid. Elution profiles were generated by eluting the ERT with increasing amount of salt. The profiles were monitored by UV (A280 nm).
To evaluate the ability of the conventional rhGAAs in MYOZYME® and LUMIZYME® to interact with the CIMPR, the two conventional rhGAA preparations were injected onto a CIMPR affinity column (which binds rhGAA having M6P groups) and the flow through collected. The bound material was eluted with a free M6 gradient. Fractions were collected in 96-well plate and GAA activity assayed by 4MU-α-glucosidase substrate. The relative amounts of unbound (flow through) and bound (M6P eluted) rhGAA were determined based on GAA activity and reported as the fraction of total enzyme. […] Indeed, only 27% of the rhGAA in MYOZYME® and 22% of the rhGAA in LUMIZYME® contained M6P that can be productive to target it to the CIMPR on muscle cells.

Gaa KO mice = test: Single fiber analysis (LAMP1/LC3 co-immunofluorescence, white gastrocnemius); type: in vivo, mouse; settings: mouse, in vivo
Excerpt: FIG. 17 depicts co-immunofluorescent staining of LAMP1 (green) (see for example, “B”) and LC3 (red) (see, for example, “A”) in single fibers isolated from the white gastrocnemius of Gaa KO mice treated with a vehicle, alglucosidase alfa, or ATB200. “C” depicts clearance of autophagic debris and absence of enlarged lysosome. A minimum of 30 fibers were examined from each animal.
As a result, a significant portion of muscle fibers analyzed (36-60%) from ATB200-treated mice appeared normal or near-normal.

Pompe disease patients = settings: ERT-experienced patients; cited from earlier work
[2] = system: LOPD population (PROPEL target population); test: Multi-level network meta-regression (ML-NMR) indirect treatment comparison, 6MWD and FVC change from baseline at week 52; design: species or system human; settings: base-case scenario
Method: Using patient-level data from the PROPEL randomized clinical trial (RCT) plus aggregate published data from other RCTs, Phase I/II and open label extension trials, a multi-level network meta-regression was conducted, adjusting for various baseline covariates including previous ERT duration. The base case scenario had covariates resembling the PROPEL population (naïve and ERT-experienced) and analyzed 6MWD and FVC change from baseline at 52 weeks.
An ITC providing relative effect estimates in the target population of interest (ie an LOPD population including a mix of ERT-naïve and ERT-experienced subjects as in the pivotal Phase III trial comparing Cipa+mig with Alglu [PROPEL]) was performed.
A systematic literature review (SLR) was conducted to identify relevant published clinical studies of ERTs in LOPD. Outcomes assessed were change from baseline in 6-minute walking distance (6MWD) (m) and in forced vital capacity (FVC; % predicted) at week 52, acknowledged by clinicians, HTA agencies and payers as key LOPD trial endpoints. Aggregate results on 6MWD and FVC change from baseline over time and baseline characteristics (age, gender, ethnicity, previous ERT duration, baseline 6MWD and baseline FVC) were extracted from included studies.
A multi-level network meta regression (ML-NMR) was performed, which is an extension of standard network meta-analyses (NMAs) that take into account the effect of study-level covariates, and that can be applied to any connected network with any mixture of individual patient-level data (IPD) and aggregate data. ML-NMR is an accepted method by the National Institute for Health and Care Excellence (NICE) in support of cost effectiveness analysis. Single-arm study results were matched to appropriate comparator arms of the comparative studies to allow for inclusion into the network. Mean treatment differences with associated 95% credible intervals (CrIs) were calculated for 6MWD and FVC change from baseline at week 52.
A base-case scenario was evaluated in which all covariates were set to the target population of the PROPEL trial. To study the impact of previous ERT duration on relative effects, ERT duration value was varied, keeping remaining covariate values as in the base-case scenario. A sensitivity analysis was performed by excluding all matched single-arm evidence from the network to assess its impact on the results.
Both fixed effects (FE) and random effects (RE) ML-NMR models were applied and the deviance information criteria (DIC) was used to assess goodness-of-fit of the models and to identify the appropriate model (FE or RE model) for the data. Models were implemented in a Bayesian framework using Stan with help of the R package multinma.
In the base-case scenario, the covariates were set to the baseline characteristics of the target population (ie the PROPEL trial; see Table 20), and time was set to 52 weeks.

adult subjects with LOPD [3] = test: Study ATB200-07 (OLE of PROPEL): 6MWD and % predicted 6MWD; type: in vivo, human
Excerpt: (§1) The study doses and schedule are maintained from Study ATB200-03.
(§2) Efficacy data are presented in this summary as change from the baseline of Study ATB200-03 (OLE-ES Population).

adult subjects with LOPD [4] = test: Study ATB200-07 (OLE): Hex4
adult subjects with LOPD [5] = test: Study ATB200-07 (OLE): sitting % predicted FVC; type: in vivo, human
Excerpt: as §1, §2

adult subjects with LOPD [6] = test: Study ATB200-07 (OLE): CK
[7] = in vivo
[8] = human, plasma, oral, 260 mg dose

CIMPR, sequence (P11717 41-2491, species assumed): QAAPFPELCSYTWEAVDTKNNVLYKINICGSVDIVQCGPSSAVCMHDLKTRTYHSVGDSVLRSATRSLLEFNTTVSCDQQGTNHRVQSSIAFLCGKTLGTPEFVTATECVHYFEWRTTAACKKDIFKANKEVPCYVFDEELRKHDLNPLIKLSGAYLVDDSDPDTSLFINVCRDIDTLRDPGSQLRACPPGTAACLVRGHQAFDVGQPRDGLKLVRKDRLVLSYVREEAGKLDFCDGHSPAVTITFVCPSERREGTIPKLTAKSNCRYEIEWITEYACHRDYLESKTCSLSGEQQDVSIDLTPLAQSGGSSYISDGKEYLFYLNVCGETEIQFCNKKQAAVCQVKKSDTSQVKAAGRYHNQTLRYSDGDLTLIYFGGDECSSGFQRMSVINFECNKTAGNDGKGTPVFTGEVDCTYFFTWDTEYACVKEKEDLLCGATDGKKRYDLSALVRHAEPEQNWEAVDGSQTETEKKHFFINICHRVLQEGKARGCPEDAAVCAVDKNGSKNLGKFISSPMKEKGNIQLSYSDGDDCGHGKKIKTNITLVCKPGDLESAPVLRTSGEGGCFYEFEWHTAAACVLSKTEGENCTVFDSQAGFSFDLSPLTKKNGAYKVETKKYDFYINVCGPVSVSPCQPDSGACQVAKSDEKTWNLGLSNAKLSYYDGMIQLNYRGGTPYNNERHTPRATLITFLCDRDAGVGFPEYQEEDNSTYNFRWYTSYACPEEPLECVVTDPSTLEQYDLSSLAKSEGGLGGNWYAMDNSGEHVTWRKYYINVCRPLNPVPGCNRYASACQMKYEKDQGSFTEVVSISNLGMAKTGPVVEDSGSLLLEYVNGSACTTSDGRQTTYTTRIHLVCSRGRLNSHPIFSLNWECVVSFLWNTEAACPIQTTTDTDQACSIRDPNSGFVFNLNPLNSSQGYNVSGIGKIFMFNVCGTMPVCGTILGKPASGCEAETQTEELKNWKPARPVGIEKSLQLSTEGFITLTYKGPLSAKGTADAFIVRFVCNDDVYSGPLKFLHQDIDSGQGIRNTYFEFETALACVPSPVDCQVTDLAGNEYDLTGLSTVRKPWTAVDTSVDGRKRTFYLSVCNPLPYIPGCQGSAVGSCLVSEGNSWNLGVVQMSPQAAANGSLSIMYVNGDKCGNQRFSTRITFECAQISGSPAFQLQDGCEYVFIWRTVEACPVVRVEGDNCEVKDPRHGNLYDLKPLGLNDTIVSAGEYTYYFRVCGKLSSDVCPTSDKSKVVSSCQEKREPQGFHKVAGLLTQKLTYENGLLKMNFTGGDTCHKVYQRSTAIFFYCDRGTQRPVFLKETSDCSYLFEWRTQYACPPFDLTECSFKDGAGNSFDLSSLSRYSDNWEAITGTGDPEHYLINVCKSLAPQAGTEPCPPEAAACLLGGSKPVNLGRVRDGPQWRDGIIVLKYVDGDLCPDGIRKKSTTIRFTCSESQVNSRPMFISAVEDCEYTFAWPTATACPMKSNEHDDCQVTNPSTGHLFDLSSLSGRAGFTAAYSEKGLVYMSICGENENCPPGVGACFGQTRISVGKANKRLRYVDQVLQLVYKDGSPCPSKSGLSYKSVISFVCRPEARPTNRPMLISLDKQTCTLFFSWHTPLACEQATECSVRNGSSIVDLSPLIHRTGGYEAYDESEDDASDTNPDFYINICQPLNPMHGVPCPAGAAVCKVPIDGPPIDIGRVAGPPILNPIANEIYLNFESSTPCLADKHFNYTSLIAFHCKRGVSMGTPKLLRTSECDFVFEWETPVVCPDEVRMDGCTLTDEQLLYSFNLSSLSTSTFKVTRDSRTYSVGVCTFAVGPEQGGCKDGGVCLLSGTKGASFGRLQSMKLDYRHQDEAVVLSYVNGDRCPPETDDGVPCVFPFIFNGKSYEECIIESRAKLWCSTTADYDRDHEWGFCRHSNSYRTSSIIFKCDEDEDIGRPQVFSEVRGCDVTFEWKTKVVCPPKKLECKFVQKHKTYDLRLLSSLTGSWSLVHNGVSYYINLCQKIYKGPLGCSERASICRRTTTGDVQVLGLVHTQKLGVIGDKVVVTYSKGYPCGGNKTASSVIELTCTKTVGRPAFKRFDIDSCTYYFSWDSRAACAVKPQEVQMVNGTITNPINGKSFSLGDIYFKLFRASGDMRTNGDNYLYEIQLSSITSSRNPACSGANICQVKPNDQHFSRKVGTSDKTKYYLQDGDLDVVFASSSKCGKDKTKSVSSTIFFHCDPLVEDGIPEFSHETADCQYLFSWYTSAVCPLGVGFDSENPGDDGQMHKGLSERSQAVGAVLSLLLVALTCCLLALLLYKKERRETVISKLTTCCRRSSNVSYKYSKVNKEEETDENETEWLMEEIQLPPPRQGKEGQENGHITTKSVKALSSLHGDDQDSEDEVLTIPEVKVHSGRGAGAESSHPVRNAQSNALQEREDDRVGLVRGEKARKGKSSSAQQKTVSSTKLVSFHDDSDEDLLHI

dose proportionality ([1]; 130 mg to 260 mg): linear pharmacokinetics
AUC [1, 8]: ~25000 ng·h/mL
Cmax [1, 8]: ~3000 ng/mL
increase of AUC0-24 hr vs normal renal function ([1]; mild renal impairment (CLcr 60-89 mL/minute)): 21%
increase of AUC0-24 hr vs normal renal function ([1]; moderate renal impairment (CLcr 30-59 mL/minute)): 26%
increase of AUC0-24 hr vs normal renal function ([1]; severe renal impairment (CLcr 15-29 mL/minute)): 31%
increase of melting temperature (Tm) of ATB200 by addition of miglustat (ATB200): ~10 °C
Compound: CCCCN1C[C@H](O)[C@@H](O)[C@H](O)[C@H]1CO [miglustat, (2R,3R,4R,5S)-1-butyl-2-(hydroxymethyl)piperidine-3,4,5-triol]
effect on sperm characteristics and fertility (rats): negatively affects sperm characteristics (motility and morphology), thereby reducing fertility
stabilization of ATB200 (ATB200): stabilized ATB200 at pH 7.4 in a concentration-dependent manner
effect on sperm concentration, motility, morphology (healthy adult men): No effect on sperm concentration, motility, or morphology

rhGAA bound to the CIMPR (fraction of total enzyme) (CIMPR; M6P eluted): 27%
rhGAA that did not bind to the CIMPR (fraction of total enzyme) (CIMPR; flow through): 73%
Compound: MYOZYME®: alglucosidase alfa product marketed by Sanofi Genzyme; conventional rhGAA product
single fiber appearance vs vehicle-treated mice (Gaa KO mice): did not show any significant difference as compared to vehicle-treated mice

Compound: avalglucosidase alfa: recombinant human acid α-glucosidase, avalglucosidase alfa-ngpt; CAS 1802558-87-7
long-term motor function by 6MWD after switching from alglucosidase alfa (Pompe disease patients): continue to experience progressive loss of motor function as assessed by 6MWD
long-term pulmonary function by FVC after switching from alglucosidase alfa (Pompe disease patients): progressive loss of pulmonary function as assessed by FVC
relative effect, sensitivity analysis (RCT data only), 6MWT and FVC [2]: numerically favourable versus Alglu and placebo (6MWT and FVC)

Compound: cipa/mig-cipa/mig: treatment sequence: cipa/mig in PROPEL, continued cipa/mig in the open-label extension
mean change in % predicted 6MWD from PROPEL baseline to week 104 (adult subjects with LOPD [3]; ERT-experienced patients): +3.1
mean change in % predicted 6MWD from PROPEL baseline to week 104 (adult subjects with LOPD [3]; ERT-naïve patients): +8.6 (8.57)
mean reduction in Hex4 from PROPEL baseline to week 104 (adult subjects with LOPD [4]; ERT-experienced patients): -1.9 (3.22) mmol/mol
mean reduction in Hex4 from PROPEL baseline to week 104 (adult subjects with LOPD [4]; ERT-naïve patients): −2.9 (2.45) mmol/mol
mean change in % predicted FVC from PROPEL baseline to week 104 (adult subjects with LOPD [5]; ERT-experienced patients): −0.6 (7.50)
mean change in % predicted FVC from PROPEL baseline to week 104 (adult subjects with LOPD [5]; ERT-naïve patients): −4.8 (6.48)
mean reduction in CK from PROPEL baseline to week 104 (adult subjects with LOPD [6]; ERT-experienced patients): -132.1 (215.74) U/L
mean reduction in CK from PROPEL baseline to week 104 (adult subjects with LOPD [6]; ERT-naïve patients): −216.9 (243.66) U/L
patients with treatment-emergent adverse events [7]: 98.8%
